Laboratory results taken from patent publication US12083105B2, “Compositions and methods for treating adult-onset neuronal ceroid lipofuscinosis (Kufs disease)” (CORNELL UNIVERSITY, priority 2020, dated 2024).

How the values were obtained:
Assay type in all cases: cell-based, human
[1] = test system: Fe—S clusters bound to immunoprecipitated CSPα; test: UV-Vis absorbance spectra of CSPα immunoprecipitated from ANCL patient fibroblasts; settings: 200 μM, 72 h, compared to control (0.1% DMSO), FIG. 7A
Experimental: (§1) ANCL patient-derived fibroblasts were treated with 200 μM of L1 or Dfx, or vehicle (0.1% DMSO=Control) for 72 h, before measuring the UV-Vis absorbance spectra of immunoprecipitated CSPα eluted by trypsinization (solid lines). Spectra were re-read after 10 min of 0.1 N HCl treatment (dashed lines). The experiments shown in FIGS. 7B-7I, were conducted using ANCL fibroblasts converted to iNs using BAM+ND1 technique. […] Quantitative immunoblotting was used to measure levels of oligomerized and fully palmitoylated CSPα as well as total SNAP-25. Oligo=oligomers; Palm=palmitoylated. […] The interaction of CSPα with SNAP-25 in ANCL iNs was measured by immunoprecipitating SNAP-25 followed by quantitative immunoblotting of co-immunoprecipitated CSPα (normalized to SNAP-25 IP). Note that mainly CSPα monomers and not oligomers were detected bound to SNAP-25. Control=control sham IP without IgG. […] Turnover of SNAP-25 was determined by cycloheximide chase, while maintaining the iron-chelators or vehicle in the medium. […] In the experiments shown in FIGS. 7E-7G, ANCL iNs treated with L1, Dfx, or vehicle for 56 d and analyzed. […] The levels of lipofuscin were determined by ELISA. In the experiments shown in FIGS. 7H-7I 56 day old untreated ANCL iNs were treated with L1, Dfx, or vehicle, and analyzed. […]

SNAP-25 = SNAP-25 turnover in ANCL iNs by cycloheximide chase; settings: 72 h pretreatment, cycloheximide chase in presence of chelator, FIG. 7D
Experimental: as §1

ATP5G = ATP5G accumulation in ANCL iNs (quantitative immunoblotting); settings: for accumulation of ATP5G: ANCL iNs treated for 56 d (prevention), FIG. 7F; for ATP5G levels: added to ANCL iNs after 56 days of lipofuscin accumulation, followed 3 weeks (treatment), compared to control, FIG. 7H
Experimental: ANCL patient-derived fibroblasts were treated with 200 μM of L1 or Dfx, or vehicle (0.1% DMSO=Control) for 72 h, before measuring the UV-Vis absorbance spectra of immunoprecipitated CSPα eluted by trypsinization (solid lines). Spectra were re-read after 10 min of 0.1 N HCl treatment (dashed lines). The experiments shown in FIGS. 7B-7I, were conducted using ANCL fibroblasts converted to iNs using BAM+ND1 technique. […] Quantitative immunoblotting was used to measure levels of oligomerized and fully palmitoylated CSPα as well as total SNAP-25. Oligo=oligomers; Palm=palmitoylated. […] The interaction of CSPα with SNAP-25 in ANCL iNs was measured by immunoprecipitating SNAP-25 followed by quantitative immunoblotting of co-immunoprecipitated CSPα (normalized to SNAP-25 IP). Note that mainly CSPα monomers and not oligomers were detected bound to SNAP-25. Control=control sham IP without IgG. […] Turnover of SNAP-25 was determined by cycloheximide chase, while maintaining the iron-chelators or vehicle in the medium. […] In the experiments shown in FIGS. 7E-7G, ANCL iNs treated with L1, Dfx, or vehicle for 56 d and analyzed. […] The levels of lipofuscin were determined by ELISA. In the experiments shown in FIGS. 7H-7I 56 day old untreated ANCL iNs were treated with L1, Dfx, or vehicle, and analyzed. […] Data are from FIG. 7A representative of n=4, FIG. 7B n=4, FIG. 7C n=4, FIG. 7D n=7, FIG. 7F n=4, FIG. 7G n=4, FIG. 7H n=6, FIG. 7I n=3. In FIGS. 7B-7C and FIGS. 7F-7G *P<0.05; **P<0.01; ****P<0.0001 by two-tailed Student's t-test. #P<0.05 by Mann-Whitney-Wilcoxon U test. In FIG. 7D-7C and FIGS. 7H-7I **P<0.01; ***P<0.001; ****P<0.0001 by two-way ANOVA; ##P<0.01; ###P<0.001; ####P<0.0001 by Tukey's multiple comparisons test.
For SDS-PAGE, 10-15% Laemmli gels (10.3% T and 3.3% C) were used to separate proteins on Bio-Rad apparati. Proteins were transferred onto nitrocellulose (pore-size=[…]; GE Healthcare) and blocked with 5% w/v fat-free dry milk in tris buffered saline, pH 7.5 supplemented with 0.1% Tween 20 (TBS-T). Immunoblotting was performed by incubating the blocked membranes with primary antibodies in blocking buffer for 8-16 hours. Following 5 washes with TBS-Tween 20 (0.1%). Blots were incubated with secondary antibodies (goat anti-rabbit conjugated to IRDye […] or 800CW; LI-COR) at 1/5000 in blocking buffer for 1-3 hours. Immunoblots were washed 5× with TBS-T and dried, then scanned on Odyssey CLx (LI-COR) and quantified using Image-Studio software (LI-COR).
For ATPSG immunoblots, following the transfer, nitrocellulose membranes were dried and fixed for 15 min at room temperature in 0.2% glutaraldehyde in PBS. […]
Effect of iron chelators on the accumulation of lipofuscin was monitored by ELISA for lipofuscin or based on lipofuscin autofluorescence. […]

Question: How did the “UV-Vis signature of Fe—S clusters bound to immunoprecipitated CSPα” value [1] turn out when `CC(=O)N(O)CCCCCNC(=O)CCC(=O)N(O)CCCCCNC(=O)CCC(=O)N(O)CCCCCN` [Dfx, N′-[5-(Acetyl-hydroxy-amino)pentyl]-N-[5-[3-(5-aminopentyl-hydroxy-carbamoyl)propanoylamino]pentyl]-N-hydroxy-butane diamide] was run?
Answer: Its value is “reduced”.

Question: What about the “turnover of SNAP-25” value (SNAP-25) of the same compound?
Answer: The value was “decreased turnover”.

Question: What about the “accumulation of ATP5G” value (ATP5G) of the same compound?
Answer: The value was “trend toward reduced accumulation”.

Question: What about the ATP5G levels (ATP5G) of the same compound?
Answer: Its ATP5G levels is “diminished down to similar levels as observed in the prevention experiments”.

Question: How did the “UV-Vis signature of Fe—S clusters bound to immunoprecipitated CSPα” value [1] turn out when `Cc1c(O)c(=O)ccn1C` [L1, 3-hydroxy-1,2-dimethyl-4(1H)-pyridone] was run?
Answer: Its value is “reduced”.

Question: And the “turnover of SNAP-25” value (SNAP-25)?
Answer: Its value is “decreased turnover”.

Question: What about the “accumulation of ATP5G” value (ATP5G) of the same compound?
Answer: Its value is “trend toward reduced accumulation”.

Question: And the ATP5G levels (ATP5G)?
Answer: Its ATP5G levels is “diminished down to similar levels as observed in the prevention experiments”.
